Data set [1] has as its system complex I. As to the kind of experiment: Complex I activity of mitochondria from striata of exposed mice. Type of data set: in vivo, mouse. The note with it: 20 mg/kg/day oral 7 days, 30 days after end of exposure. Here is the method:
The kinetics of the oxidation reaction of NADH into NAD+ at 340 nm at 37° C. were continuously monitored by spectrophotometry using a JASCO V-530 spectrophotometer or a TECAN 1000M Infinite plate reader, set to a wavelength of 340 nm for 3 min. The amount of mitochondria extract to obtain the maximum activity introduced into the reaction volume was 100 μg with the spectrophotometer and 10 μg with the reader. Each manipulation must be done at substrate saturation, which is an NADH concentration of 160 μM. Mitochondria previously divided into multiple aliquots were frozen, then quickly thawed a few minutes before use. In a first step, the mitochondria extract was introduced into the hypotonic buffer (50 mM KH2PO4 and 10 mM MgCl2, pH=7.2 at 37° C.) for 2 minutes to break open the mitochondrial membranes and access the respiratory chain (Chretien et al., Biochem Biophys Res Commun, 2003, 301(1):222-4). […] The slope of the kinetics was then measured. […] The inhibition percentage was then calculated. […]
For each mouse sacrificed, cortex and striatum samples had been previously collected and processed to extract the mitochondria. The activity of the mitochondrial respiratory chain and of complex I were determined as described in Part B above, in the “Materials and Methods” subsection (without addition of furosemide pyridinium or an analog to the medium).

Data set [2] deals with mitochondria isolated from rat cerebral cortex. The data set is described as follows: Respiratory control (oxygen consumption, malate/pyruvate) of isolated cerebral cortex mitochondria. The note with it: increasing concentration. The class given is biochemical. Here is the method: The animal was then decapitated in order to collect from the brain either the cortex or the striatum, which were quickly placed in a Potter Elvejhem® containing 6 ml of extraction buffer at 4° C. (250 mM sucrose, 40 mM KCl, 2 mM EGTA, lmg/ml BSA, 20 mM Tris, pH=7.2). This mixture was homogenized to break open the cells and release the mitochondria and then centrifuged at 2000 g for 8 minutes to remove the larger membrane debris and the nuclei from the pellet. The supernatant was then recovered and centrifuged at 13,000 g for 11 minutes. The supernatant was discarded while the pellet containing a mitochondria-rich fraction was resuspended in 500 μl of respiration buffer at 4° C. (300 mM D-mannitol, 10 mM KCl, 10 mM KH2PO4, 5 mM MgCl2, pH=7.2). […]
Added to the polarography chamber (Hansatech) were 30 μl of mitochondria solution (0.2 mg), 460 μL of respiration buffer, 5 μl of test compound solution (meaning MPP+ or furosemide pyridinium) (or its solubilizing solvent). […] The effect of the compound on respiratory control was evaluated (ratio of stage 3 to 4), which corresponds to the coupling of the respiratory chain, or in other words the ATP synthesis at complex V and the oxygen consumption due to complexes I to IV. The results are expressed as percentages of the value measured for mitochondria not treated with the test compound (but treated with the solubilizing solvent).

The nature of data set [3]: Cell viability test in MTT. The class given is cell-based, human. The note with it: human, SH-SY5Y neuroblastoma cells, 96 h of incubation, read-out: reduction of cell viability. On the procedure: (§1) Cells from SH-SY5Y human neuroblastomas were cultured in a DMEM medium containing 4.5 g·L^−1 glucose, 10% fetal calf serum, and 1% penicillin/streptomycin, and placed in an incubator at 37° C. with 7% CO2.
(§2) In the various experiments, the SH-SY5Y cells were seeded at a density of 4×10^4 cells/mL. 24 h after seeding, the cells were exposed to the various test compounds at 37° C. for 24 h, 48 h, 72 h, or 96 h.
(§3) This test consisted of rapidly measuring cellular metabolic activity in the presence of the study compound at different concentrations, in order to conduct a dose-response study. To do this, the tetrazolium salt MTT, 3-(4,5-dimethylthiazol-2-yl)-2,5-diphenyltetrazolium bromide (Amoroso et al., Biochim Biophys Acta, 1999, 1452(2):151-60), was placed in contact with the cells. MTT is reduced to formazan by living cells that have the capacity to metabolize it, unlike dead cells. To conduct this test, SH-SY5Y neuronal cells in 48-well plates were incubated for 24 h, 48 h, 72 h, and 96 h, with furosemide pyridinium at concentrations ranging from 0 to 1000 μM. Then MTT (0.5 mg/ml final) was added to each well and incubated at 37° C. for 2 h. At the end of incubation, after carefully removing the medium, DMSO was added (200 μL) to dissolve the cell membranes and the formazan crystals formed by the living cells. The toxicity of the molecule was evaluated by determining the amount of reduced MTT, doing so by measuring the absorbance at 550 nm as this value is proportional to the number of living cells. The results were expressed as a function of the values obtained for cells treated only with the solvent used to dissolve the compound of interest. To compare the toxicity of furosemide pyridinium to that of MPP+, the cells were incubated in the presence of MPP+ (0 to 1000 μM) for 6 h. The culture medium was replaced and the cells were incubated at 37° C. for an additional 24 h (no MPP+). Cell survival was measured at the end of these 24 hours of incubation as described above. When evaluating the effect of different concentrations of α-tocopherol (vitamin E), a membrane antioxidant, the cells were pretreated for 24 h with this antioxidant before being exposed to furosemide pyridinium at a concentration of 0.5 mM under the same experimental conditions as above.

Data set [4] relates to SH-SY5Y neuronal cells. The data set is described as follows: Cell viability test in MTT. The class given is cell-based, human. On the procedure:
as §1, §2, §3

The EC50 is the concentration needed to bring the measured effect to its halfway point. For the compound `NS(=O)(=O)c1cc(C(=O)[O-])c(-[n+]2cccc(O)c2)cc1Cl` [furosemide pyridinium, 4-chloro-2-(3-hydroxypyridinium-1-yl)-5-sulfamoylbenzoate], in data set [1], the “decrease in activity of complex I of striatal mitochondria vs control animals” value was 49%. The “respiratory control of cerebral cortex mitochondria induced by malate/pyruvate” value in data set [2] is “diminished”. The cytotoxicity at 96 h in data set [3] was around 60%. Besides, the “decrease in cell survival” value in data set [4] (0.5 mM, 96 h) is on record as “about 20%”. Besides, the “effect on cell survival” value in data set [4] (24 h of incubation, even at 1 mM) is recorded as “no significant effect”. The EC50 in data set [4] (Homo sapiens, 96 h of incubation, estimated, read-out: EC50 (cell survival)) was 973 µM.

The record behind these values is patent US9744250B2, “Chemical model of a neurodegenerative disease, method for preparation and uses of same” (priority 2012, dated 2017).
